Measured values taken from patent US11731943B2, “Therapeutic compounds, compositions and methods of use thereof” (priority 2016, dated 2023).
Where two headings read alike, the source gives them in different places.

Assays:
[1] = target: isolated recombinant JAK1 kinase domain (Homo sapiens (Human), UniProt P23458); experiment: JAK1 enzyme assay (Caliper LabChip, Ki); assay type: biochemical
Protocol: (§1) JAK Enzyme Assays were carried out as follows:
(§2) The activity of the isolated recombinant JAK1 and JAK2 kinase domain was measured by monitoring phosphorylation of a peptide derived from JAK3 (Val-Ala-Leu-Val-Asp-Gly-Tyr-Phe-Arg-Leu-Thr-Thr, fluorescently labeled on the N-terminus with 5-carboxyfluorescein) using the Caliper LabChip® technology (Caliper Life Sciences, Hopkinton, Mass.). […] Reactions were incubated at 22° C. in 384-well polypropylene microtiter plates for 30 minutes and then stopped by addition of 25 μL of an EDTA containing solution (100 mM HEPES buffer (pH 7.2), 0.015% Brij-35, 150 mM EDTA), resulting in a final EDTA concentration of 50 mM. After termination of the kinase reaction, the proportion of phosphorylated product was determined as a fraction of total peptide substrate using the Caliper LabChip® 3000 according to the manufacturer's specifications. Ki values were then determined using the Morrison tight binding model (Morrison, J. F., Biochim. Biophys. Acta. 185:269-296 (1969); William, J. W. and Morrison, J. F., Meth. Enzymol., 63:437-467 (1979)) modified for ATP-competitive inhibition [Ki=Ki,app/(1+[ATP]/Km,app)].

[2] = target: isolated recombinant JAK2 kinase domain (Homo sapiens (Human), UniProt O60674); experiment: JAK2 enzyme assay (Caliper LabChip, Ki); assay type: biochemical
Protocol: as §1
as §2, with “([…]” for “(Val-Ala-Leu-Val-Asp-Gly-Tyr-Phe-Arg-Leu-Thr-Thr,”, “specifications.” for “specifications. Ki values were then determined using the Morrison tight binding model (Morrison, J. F., Biochim. Biophys. Acta. 185:269-296 (1969); William, J. W. and Morrison, J. F., Meth. Enzymol., 63:437-467 (1979)) modified for ATP-competitive inhibition [Ki=Ki,app/(1+[ATP]/Km,app)].”

Sequence of isolated recombinant JAK2 kinase domain (O60674 849-1124): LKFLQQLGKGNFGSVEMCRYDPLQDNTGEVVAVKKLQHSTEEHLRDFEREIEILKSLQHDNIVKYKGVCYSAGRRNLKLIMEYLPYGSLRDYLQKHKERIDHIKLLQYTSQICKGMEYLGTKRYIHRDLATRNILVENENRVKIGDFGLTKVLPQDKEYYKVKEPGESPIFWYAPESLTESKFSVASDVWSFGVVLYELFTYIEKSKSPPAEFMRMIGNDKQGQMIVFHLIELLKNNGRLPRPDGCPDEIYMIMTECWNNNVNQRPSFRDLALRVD
Sequence of isolated recombinant JAK1 kinase domain (P23458 875-1153): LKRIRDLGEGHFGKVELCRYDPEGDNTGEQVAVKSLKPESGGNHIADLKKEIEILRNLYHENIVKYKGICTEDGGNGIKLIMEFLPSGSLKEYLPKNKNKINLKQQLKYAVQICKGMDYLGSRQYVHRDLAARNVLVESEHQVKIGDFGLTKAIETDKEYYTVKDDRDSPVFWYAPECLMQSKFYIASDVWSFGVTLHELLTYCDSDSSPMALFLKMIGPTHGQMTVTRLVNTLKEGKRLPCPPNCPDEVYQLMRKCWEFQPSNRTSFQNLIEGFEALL

## N#CCC1(n2cc(C(N)=O)c(NC(=O)C3CC3)n2)CCN(Cc2cccc(CN)c2)CC1 [Example 97]
[1]; read-out: JAK1 Ki
  Ki: 41 nM
[2]
  Ki: 163 nM

## N#CCC1(n2cc(C(N)=O)c(NC(=O)C3CC3)n2)CCN(Cc2ccccc2I)CC1 [Example 53]
[1]; read-out: JAK1 Ki
  Ki: 7.1 nM
[2]
  Ki: 101 nM

## CS(=O)(=O)c1ccccc1CN1CCC(CC#N)(n2cc(C(N)=O)c(NC(=O)C3CC3)n2)CC1 [Example 69]
[1]; read-out: JAK1 Ki
  Ki: 15.2 nM
[2]
  Ki: 124 nM

## N#CCC1(n2cc(C(N)=O)c(NC(=O)C3CC3)n2)CCCCC1 [Example 33]
[1]; read-out: JAK1 Ki
  Ki: 15.6 nM
[2]
  Ki: 76.5 nM

## N#CC[C@]1(n2cc(C(N)=O)c(NC(=O)C3CC3)n2)CC[C@H](NCc2ccccc2F)CC1 [Example 111]
[1]
  Ki: 9.5 nM
[2]
  Ki: 87.3 nM

## N#CC[C@]1(n2cc(C(N)=O)c(NC(=O)C3CC3)n2)CC[C@@H](NCc2ccccc2Cl)CC1 [Example 118]
[1]
  Ki: > 562 nM
[2]
  Ki: > 319 nM

## CC(C)OC1(C(F)(F)F)CN([C@H]2CC[C@](CC#N)(n3cc(C(N)=O)c(NC(=O)C4CC4)n3)CC2)C1 [Example 136]
[1]; read-out: JAK1 Ki
  Ki: 463 nM
[2]
  Ki: > 319 nM

## N#CC[C@]1(n2cc(C(N)=O)c(NC(=O)C3CC3)n2)CC[C@@H](NCc2ccccc2)CC1 [Example 110]
[1]
  Ki: 5.3 nM
[2]
  Ki: 254 nM

## N#CC[C@]1(n2cc(C(N)=O)c(NC(=O)C3CC3)n2)CC[C@H](NCc2ccc(C#N)cc2)CC1 [Example 121]
[1]
  Ki: 14.6 nM
[2]
  Ki: 282 nM

## N#CC[C@]1(n2cc(C(N)=O)c(NC(=O)C3CC3)n2)CC[C@@H](NCc2ccccc2F)CC1 [Example 112]
[1]
  Ki: > 562 nM
[2]
  Ki: > 319 nM

## N#CCC1(n2cc(C(N)=O)c(NC(=O)C3CC3)n2)CCN(Cc2ccccc2)CC1 [Example 40]
[1]; read-out: JAK1 Ki
  Ki: 7.9 nM
[2]
  Ki: 96.7 nM

## CC1(C)CN([C@H]2CC[C@@](CC#N)(n3cc(C(N)=O)c(NC(=O)C4CC4)n3)CC2)C1 [Example 106]
[1]
  Ki: 23.3 nM
[2]
  Ki: 333 nM

## N#CC[C@]1(n2cc(C(N)=O)c(NC(=O)C3CC3)n2)CC[C@H](NCc2ccc(F)cc2)CC1 [Example 115]
[1]
  Ki: 21.9 nM
[2]
  Ki: 300 nM

## N#CCC1(n2cc(C(N)=O)c(NC(=O)C3CC3)n2)CCN(Cc2ccc3nc[nH]c3c2)CC1 [Example 73]
[1]; read-out: JAK1 Ki
  Ki: 57.3 nM
[2]
  Ki: 272 nM

## CC(=O)Nc1nn(C2(CC#N)CCN(CC(F)(F)F)CC2)cc1C(N)=O [Example 24]
[1]; read-out: JAK1 Ki
  Ki: 35.6 nM
[2]
  Ki: 76.7 nM

## CS(=O)(=O)Nc1ccc(CN2CCC(CC#N)(n3cc(C(N)=O)c(NC(=O)C4CC4)n3)CC2)cc1 [Example 46]
[1]; read-out: JAK1 Ki
  Ki: 41.4 nM
[2]
  Ki: 284 nM

## N#CCC1(n2cc(C(N)=O)c(NC(=O)[C@@H]3C[C@H]3F)n2)CCN(CC(F)(F)F)CC1 [Example 30]
[1]; read-out: JAK1 Ki
  Ki: 8.6 nM
[2]
  Ki: 53.2 nM

## N#CCC1(n2cc(C(N)=O)c(NC(=O)C3CC3)n2)CCN(C2CCN(C(=O)c3ccnc(C(F)(F)F)c3F)CC2)CC1 [Example 98]
[1]; read-out: JAK1 Ki
  Ki: 74.6 nM
[2]
  Ki: 152 nM

## N#CCC1(n2cc(C(N)=O)c(NC(=O)C3CC3)n2)CCN(C(=O)C2CC(F)(F)C2)CC1 [Example 168, 1-[4-(cyanomethyl)-1-(3,3-difluorocyclobutanecarbonyl)-4-piperidyl]-3-(cyclopropanecarbonylamino) pyrazole-4-carboxamide]
[1]; read-out: JAK1 Ki
  Ki: 7.5 nM
[2]
  Ki: 93.3 nM

## N#CC[C@]1(n2cc(C(N)=O)c(NC(=O)C3CC3)n2)CC[C@H](NCc2ccc(-c3ccccc3)cc2)CC1 [Example 127]
[1]
  Ki: > 562 nM
[2]
  Ki: > 319 nM

## N#CCC1(n2cc(C(N)=O)c(NC(=O)C3CC3)n2)CCN(Cc2ccc(N3CCCCC3)cc2)CC1 (racemic) [Example 39]
[1]
  Ki: 98.2 nM
[2]
  Ki: > 319 nM

## N#CC[C@]1(n2cc(C(N)=O)c(NC(=O)C3CC3)n2)CC[C@@H](NC2CCOCC2)CC1 [Example 104]
[1]
  Ki: > 562 nM
[2]
  Ki: > 319 nM

## COc1cccc(CN2CCC(CC#N)(n3cc(C(N)=O)c(NC(=O)C4CC4)n3)CC2)c1 [Example 42]
[1]; read-out: JAK1 Ki
  Ki: 7.8 nM
[2]
  Ki: 94.9 nM

## CN(CC(F)(F)F)[C@H]1CC[C@@](CC#N)(n2cc(C(N)=O)c(NC(=O)C3CC3)n2)CC1 [Example 130]
[1]
  Ki: > 562 nM
[2]
  Ki: > 319 nM

## N#CCC1(n2cc(C(N)=O)c(NC(=O)C3CC3)n2)CCN(Cc2ccccc2Br)CC1 [Example 50]
[1]; read-out: JAK1 Ki
  Ki: 6.2 nM
[2]
  Ki: 66.4 nM

## N#CCC1(n2cc(C(N)=O)c(NC(=O)C3CC3)n2)CCN(Cc2ccccc2OC(F)(F)F)CC1 [Example 47]
[1]; read-out: JAK1 Ki
  Ki: 34.1 nM
[2]
  Ki: 250 nM

## N#CCC1(n2cc(C(N)=O)c(NC(=O)C3CC3)n2)CCN(C(=O)CC(F)(F)F)CC1 [Example 170, 1-[4-(cyanomethyl)-1-(3,3,3-trifluoropropanoyl)-4-piperidyl]-3-(cyclopropanecarbonylamino) pyrazole-4-carboxamide]
[1]; read-out: JAK1 Ki
  Ki: 6.7 nM
[2]
  Ki: 70.9 nM

## N#CC[C@]1(n2cc(C(N)=O)c(NC(=O)C3CC3)n2)CCN(Cc2ccccc2)C[C@H]1F [Example 165]
[1]; read-out: JAK1 Ki
  Ki: 27.1 nM
[2]
  Ki: 211 nM

## N#CCC1(n2cc(C(N)=O)c(NC(=O)C3CC34CC4)n2)CCN(CC(F)(F)F)CC1 (stereo not drawn) [Example 25]
[1]; read-out: JAK1 Ki
  Ki: 81.2 nM
[2]
  Ki: > 319 nM

## CC(F)(F)C(=O)N1CCC(CC#N)(n2cc(C(N)=O)c(NC(=O)C3CC3)n2)CC1 [Example 171, 1-[4-(cyanomethyl)-1-(2,2-difluoropropanoyl)-4-piperidyl]-3-(cyclopropanecarbonylamino) pyrazole-4-carboxamide]
[1]; read-out: JAK1 Ki
  Ki: 6.6 nM
[2]
  Ki: 30.3 nM

## N#CC[C@]1(n2cc(C(N)=O)c(NC(=O)C3CC3)n2)CC[C@H](N2CC(F)(F)C2)CC1 [Example 179, 1-[1-(cyanomethyl)-4-(3,3-difluoroazetidin-1-yl)cyclohexyl]-3-(cyclopropanecarbonylamino) pyrazole-4-carboxamide]
[1]
  Ki: > 562 nM
[2]
  Ki: > 319 nM

## CS(=O)(=O)c1cccc(CN2CCC(CC#N)(n3cc(C(N)=O)c(NC(=O)C4CC4)n3)CC2)c1 [Example 70]
[1]; read-out: JAK1 Ki
  Ki: 31 nM
[2]
  Ki: > 319 nM

## N#CCC1(n2cc(C(N)=O)c(NC(=O)C3CC3)n2)CCN(Cc2cccc(I)c2)CC1 [Example 54]
[1]; read-out: JAK1 Ki
  Ki: 10.7 nM
[2]
  Ki: 102 nM

## N#CCC1(n2cc(C(N)=O)c(NC(=O)C3CC3)n2)CCN(C(=O)Cc2ccccc2)CC1 [Example 18, 1-(4-(Cyanomethyl)-1-(2-phenylacetyl)piperidin-4-yl)-3-(cyclopropanecarboxamido)-1H-pyrazole-4-carboxamide]
[1]; read-out: JAK1 Ki
  Ki: 30.8 nM
[2]
  Ki: 235 nM

## CC(C)(C)OC(=O)N[C@H]1CC[C@](CC#N)(n2cc(C(N)=O)c(NC(=O)C3CC3)n2)CC1 [Example 35]
[1]
  Ki: 20.2 nM
[2]
  Ki: 275 nM

## N#CCC1(n2cc(C(N)=O)c(NC(=O)C3CC3)n2)CCC2(CC1)Oc1ccccc1O2 (racemic) [Example 34]
[1]
  Ki: 24.8 nM
[2]
  Ki: 276 nM

## N#CCC1(n2cc(C(N)=O)c(NC(=O)C3CC3)n2)CCN(Cc2cccc(OC(F)F)c2)CC1 [Example 92]
[1]; read-out: JAK1 Ki
  Ki: 10.9 nM
[2]
  Ki: 88.1 nM

## N#CCC1(n2cc(C(N)=O)c(NC(=O)C3CC3)n2)CCN(CCC(F)(F)F)CC1 [Example 96]
[1]; read-out: JAK1 Ki
  Ki: 24.1 nM
[2]
  Ki: 113 nM

## N#CC[C@]1(n2cc(C(N)=O)c(NC(=O)C3CC3)n2)CC[C@H](N2CC(F)C2)CC1 [Example 181, 1-[1-(cyanomethyl)-4-(3-fluoroazetidin-1-yl)cyclohexyl]-3-(cyclopropanecarbonylamino) pyrazole-4-carboxamide]
[1]
  Ki: > 562 nM
[2]
  Ki: > 319 nM
